Results on twelve compounds are retold here after patent US4471116A, “Substituted (10H-phenothiazin-10-L)-propyl-1-piperazines” (Hoffmann-La Roche Inc., priority 1982, dated 1984).

Molecules are shown by their SMILES. Where a name gives a salt, the structure may show the parent alone. Read-outs that look alike come from different tables or passages of the source. Where only a bound is given, the exact number is not on record here.

For this test, the system named is avoidance behavior. Put plainly: Discrete Avoidance - Rats (avoidance block / escape block). The format is in vivo, rat. The conditions noted are these: for inhibition in vivo at 40 mg/kg / inhibition in vivo at 25 mg/kg: Rattus norvegicus. The text has this:
For example, by one procedure, trained rats are placed in experimental chambers equipped with a response lever, a steel grid floor for delivery of electric shock and a loudspeaker for presentation of auditory stimuli. […] The rats can terminate a trial at any point by depression of the response lever. A response during the initial fifteen-second warning tone ends the trial before shock delivery and is considered an avoidance response, while a response occurring during shock delivery is an escape response. Trials are presented every two minutes during a one-hour test session (30 trials per session). […] Compounds are administered to a minimum of three to four rats at each dose level over a range of doses. Rats receive vehicle alone, during control sessions prior to drug administration. Each rat is tested daily or weekly, after a single drug administration, until avoidance behavior returns to pre-drug baseline levels. The session is divided into three consecutive twenty minute (ten trial) segments. Response counts are summed over all subjects at a given dose within each segment. […] This number is expressed as a percentage of the total trials within the segment. […] The lowest dose which produced a 20% block of escape responding (EBD 20) is read from a graphic dose-effect plot. In obtaining these values, percent effect is plotted against the log dose.

Setting [1] is: 1 h, 40 mg/kg po, 60 min. post-drug, read-out: Percentage Block of Avoidance, 60 min. post-drug.
Where [2] appears, read: 40 mg/kg po, 24 hrs. post-drug, read-out: Percentage Block of Avoidance, 24 hrs. post-drug.
Where [3] appears, read: 40 mg/kg po, at the indicated duration, read-out: Avoidance block at Duration of Sig. Activity (AB).
Where [4] appears, read: 40 mg/kg po, at time of peak effect, read-out: Avoidance block at Time of Peak Effect (AB).

With `CC(C)NC[C@@H](O)COc1ccc(OCCN2CCN(CCCN3c4ccccc4Sc4ccc(Cl)cc43)CC2)cc1.Cl.Cl.Cl` [(R)-1-(1-methylethylamino)-3-[4-[2-[4-[3-(2-chloro-10H-phenothiazin-10-yl)propyl]piperazin-1-yl]ethoxy]phenoxy]-2-propanol, trihydrochloride], under “40 mg/kg po”, the “Duration of Sig. Activity” value is recorded as 3 weeks. The “Time of Peak Effect” value (40 mg/kg po) was 10 days. Besides, the inhibition in vivo at 40 mg/kg under setting [1] was 20%, the inhibition in vivo at 40 mg/kg under setting [2] was determined as 27%, the inhibition in vivo at 40 mg/kg under setting [3] amounted to 27% and the inhibition in vivo at 40 mg/kg under setting [4] was 37%.
With `CC(C)NCCOc1ccc(OCCN2CCN(CCCN3c4ccccc4Sc4ccc(Cl)cc43)CC2)cc1.Cl.Cl.Cl` [1-[3-(2-chloro-10H-phenothiazin-10-yl)propyl]-4-[2-[4-[2-(1-methylethyl)aminoethoxy]phenoxy]ethyl]piperazine trihydrochloride], the “Duration of Sig. Activity” value (40 mg/kg po) amounted to 8 weeks. The “Time of Peak Effect” value (40 mg/kg po) came out at 1 days. The inhibition in vivo at 40 mg/kg came to 10% under setting [1], 100% under setting [2], 37% under setting [3] and 100% under setting [4].
Turning to `CC(C)NCCCCCCOc1ccc(OCCN2CCN(CCCN3c4ccccc4Sc4ccc(Cl)cc43)CC2)cc1` [1-[3-(2-chloro-10H-phenothiazin-10-yl)]-4-[2-[4-[6-(1-methylethyl)aminohexyloxy]phenoxy]ethyl]piperazine trihydrochloride], where the note is “40 mg/kg po”, the “Duration of Sig. Activity” value turned out to be 1 weeks. Moreover, the “Time of Peak Effect” value (40 mg/kg po) came out at 1 days. Also, the inhibition in vivo at 40 mg/kg came to 23% under setting [1], 40% under setting [2], 30% under setting [3] and 40% under setting [4].
Regarding `CC(C)NCCc1ccc(OCCN2CCN(CCCN3c4ccccc4Sc4ccc(Cl)cc43)CC2)cc1.O=C(O)/C=C\C(=O)O.O=C(O)/C=C\C(=O)O.O=C(O)/C=C\C(=O)O` [1-[3-(2-chloro-10H-phenothiazin-10-yl)propyl]-4-[2-[4-[2-(1-methylethyl)aminoethyl]phenoxy]ethyl]piperazine trimaleate], the “Duration of Sig. Activity” value (40 mg/kg po) is recorded as 5 weeks. Moreover, the “Time of Peak Effect” value (40 mg/kg po) turned out to be 1 days. In addition, the inhibition in vivo at 40 mg/kg under setting [1] amounted to 10%, the inhibition in vivo at 40 mg/kg under setting [2] came to 100%, the inhibition in vivo at 40 mg/kg under setting [3] came to 80% and the inhibition in vivo at 40 mg/kg under setting [4] was determined as 100%.
Turning to `CC(C)NC[C@H](O)COc1ccc(OCCN2CCN(CCCN3c4ccccc4Sc4ccc(C(F)(F)F)cc43)CC2)cc1` [(S)-1-(1-methylethylamino)-3-[4-[2-[4-[3-(2-trifluoromethyl)-10H-phenothiazin-10-yl)propyl]piperazin-1-yl]ethoxy]phenoxy]-2-propanol trihydrochloride], for the setting “25 mg/kg po”, the “Duration of Sig. Activity” value was 61/2. Further, for the setting “25 mg/kg po”, the “Time of Peak Effect” value was in the range of 3 to 10 days. Moreover, the inhibition in vivo at 25 mg/kg reads like this: (1 h, 25 mg/kg po, 60 min. post-drug, read-out: Percentage Block of Avoidance, 60 min. post-drug) 33%; (25 mg/kg po, 24 hrs. post-drug, read-out: Percentage Block of Avoidance, 24 hrs. post-drug) 57%; (25 mg/kg po, at the indicated duration, read-out: Avoidance block at Duration of Sig. Activity (AB)) 37%; (25 mg/kg po, at time of peak effect, read-out: Avoidance block at Time of Peak Effect (AB)) 77 to 87%.
For `Cl.Cl.Cl.NCCCOc1ccc(OCCN2CCN(CCCN3c4ccccc4Sc4ccc(Cl)cc43)CC2)cc1` [3-[[4-[2-[4-[3-(2-chloro-10H-phenothiazin-10-yl)propyl]-1-piperazinyl]ethoxy]phenyl]oxy]propanamine trihydrochloride], the “Duration of Sig. Activity” value (40 mg/kg po) is given as 51/2. In addition, for the setting “40 mg/kg po”, the “Time of Peak Effect” value is 3 days. Besides, the inhibition in vivo at 40 mg/kg is, setting by setting: under setting [1], 40%; under setting [2], 73%; under setting [3], 27%; under setting [4], 90%.
Take `CSc1ccc2c(c1)N(CCCN1CCN(CCOc3ccc(OCCCCCNC(C)C)cc3)CC1)c1ccccc1S2.O=C(O)/C=C\C(=O)O.O=C(O)/C=C\C(=O)O.O=C(O)/C=C\C(=O)O` [1-[3-(2-methylthio-10H-phenothiazin-10-yl)propyl]-4-[2-[4-[5-(1-methylethyl)aminopentoxy]phenoxy]ethyl]piperazine trimaleate]: the “Duration of Sig. Activity” value (40 mg/kg po) worked out at 3 days. Besides, the “Time of Peak Effect” value (40 mg/kg po) was found to be 0.0417 days. For the same compound, the inhibition in vivo at 40 mg/kg was found to be 60% under setting [1], 45% under setting [2], 35% under setting [3] and 60% under setting [4].
Regarding `CC(C)NCCCCOc1ccc(OCCN2CCN(CCCN3c4ccccc4Sc4ccc(Cl)cc43)CC2)cc1.Cl.Cl.Cl` [1-[3-(2-chloro-10H-phenothiazin-10-yl)propyl]-4-[2-[4-[4-(1-methylethyl)aminobutoxy]phenoxy]ethyl]piperazine trihydrochloride], under “40 mg/kg po”, the “Duration of Sig. Activity” value is listed as 5 weeks. Also, for the setting “40 mg/kg po”, the “Time of Peak Effect” value fell in the range of 3 to 10 days. In addition, the inhibition in vivo at 40 mg/kg was 20% under setting [1], 33% under setting [2], 30% under setting [3] and 97 to 100% under setting [4].
On to `CNCCCOc1ccc(OCCN2CCN(CCCN3c4ccccc4Sc4ccc(Cl)cc43)CC2)cc1.Cl.Cl.Cl` [3-[[4-[2-[4-[3-(2-chloro-10H-phenothiazin-10-yl)propyl]-1-piperazinyl]ethoxy]phenyl]oxy]-N-methylpropanamine trihydrochloride], for which the “Duration of Sig. Activity” value (40 mg/kg po) came to 5 weeks. Also, the “Time of Peak Effect” value (40 mg/kg po) is reported as 1 days. The inhibition in vivo at 40 mg/kg by setting is: under setting [1], 65%; under setting [2], 100%; under setting [3], 25%; under setting [4], 100%.
For `CN(C)CCCOc1ccc(OCCN2CCN(CCCN3c4ccccc4Sc4ccc(Cl)cc43)CC2)cc1.Cl.Cl.Cl` [3-[[4-[2-[4-[3-(2-chloro-10H-phenothiazin-10-yl)propyl]-1-piperazinyl]ethoxy]phenyl]oxy]-N,N-dimethylpropanamine trihydrochloride], for the setting “40 mg/kg po”, the “Duration of Sig. Activity” value is listed as over 6 weeks. Besides, under “40 mg/kg po”, the “Time of Peak Effect” value is given as 1 days. Moreover, the inhibition in vivo at 40 mg/kg under setting [1] came to 50%, the inhibition in vivo at 40 mg/kg under setting [2] turned out to be 100%, the inhibition in vivo at 40 mg/kg under setting [3] worked out at 25% and the inhibition in vivo at 40 mg/kg under setting [4] was 100%.
On to `CC(C)NCCCCc1ccc(OCCN2CCN(CCCN3c4ccccc4Sc4ccc(Cl)cc43)CC2)cc1` [1-[3-(2-chloro-10H-phenothiazin-10-yl)propyl]-4-[2-[4-[4-(1-methylethyl)aminobutyl]phenoxy]ethyl]piperazine], for which, for the setting “40 mg/kg po”, the “Duration of Sig. Activity” value is given as 51/2. Moreover, the “Time of Peak Effect” value (40 mg/kg po) was determined as 1 days. Further, the inhibition in vivo at 40 mg/kg is, setting by setting: under setting [1], 17%; under setting [2], 100%; under setting [3], 55%; under setting [4], 100%.
Consider `CC(C)NCCCCCOc1ccc(OCCN2CCN(CCCN3c4ccccc4Sc4ccc(Cl)cc43)CC2)cc1` [1-[3-(2-chloro-10H--phenothiazin-10-yl)propyl]-4-[2-[4-[5-(1-methylethyl)aminopentoxy]phenoxy]ethyl]piperazine trimaleate], for which the “Duration of Sig. Activity” value (40 mg/kg po) came out at 2 weeks. Also, the “Time of Peak Effect” value (40 mg/kg po) came out at 1 days. The inhibition in vivo at 40 mg/kg under setting [1] was 10%, the inhibition in vivo at 40 mg/kg under setting [2] was 97%, the inhibition in vivo at 40 mg/kg under setting [3] is 23% and the inhibition in vivo at 40 mg/kg under setting [4] is 97%.
